Assay results published in patent publication US6677331B2, “Carbapenem derivatives” (Meiji Seika Kaisha, Ltd., priority 1998, dated 2004).

Experiments:
[1] = Test 4: Oral Absorption Ability Test (2); assay type: in vivo, mice (ICR, male)
Description: The compounds of Examples 62, 63 and 69 were orally administered to mice (ICR, male, n=3) in an amount of 0.5 mg (based on the weight of the compound of Example 62 from which the compounds of Examples 63 and 69 were derived)/0.2 ml/mouse as a 0.5% methylcellulose suspension, and then cilastatin was immediately administered subcutaneously in the same amount (because of the instability of the compound of Example 62 to mouse DHP-I, cilastatin as an inhibitor of DHP-I was used in combination). As a result, the compound of Example 62 was excreted in urine in 6%, 18% and 35% of bio-availability (BA) by 24 hours after the compounds of Examples 62, 63 and 69 were administered. The “BA” is a ratio of the recovery of a mother compound in urine when a test compound, i.e., a pro-drug of the mother compound , is orally administered to the recovery of the mother compound when the mother compound is administered intravenously. Some compounds were tested in the same manner as in Test 3 provided that 5%HCO60 was used instead of 0.5% methylcellulose suspension.

[2] = solubility (remark in the acute toxicity test); assay type: physicochemical; settings: reason for the lower i.v. dose
[3] = Test 5: Acute Toxicity (i.v.); assay type: in vivo, mice (ICR, male)
Description: The compounds of Examples 44, 62, 88, and 111 were tested again in the same manner as the above provided that cilastatin sodium was co-administered.

E. hirae ATCC8043 = assay: Test 1: Anti-Microbial Activities (MIC); assay type: cell-based; settings: Enterococcus hirae, Sensitivity Disk agar-N+5% Horse blood, inoculants 10^6 CFU/ml, read-out: minimum inhibiting concentrations (MIC)
Description: (§1) The minimum inhibiting concentrations (MIC, μg/ml) of the compounds according to the present invention to various pathogenic bacteria was measured in accordance with the method described in CHEMOTHERAPY, vol. 16, No. 1,99, 1968. The culture medium for measurement was Sensitivity Disk agar-N+5% Horse blood, and the amount of inoculants was 10^6 CFU/ml.

S. pneumoniae PRC9 = assay: Test 1: Anti-Microbial Activities (MIC); assay type: cell-based; settings: Streptococcus pneumoniae; S. pneumoniae PRC9, penicillin-hyperresistant strain (PRSP); Sensitivity Disk agar-N+5% Horse blood; inoculants 10^6 CFU/ml; read-out: minimum inhibiting concentrations (MIC)
Description: as §1

S. epidermidis ATCC14990 = assay: Test 1: Anti-Microbial Activities (MIC); assay type: cell-based; settings: Staphylococcus epidermidis, Sensitivity Disk agar-N+5% Horse blood, inoculants 10^6 CFU/ml, read-out: minimum inhibiting concentrations (MIC)
Description: as §1

S. aureus 209P JC-1 = assay: Test 1: Anti-Microbial Activities (MIC); assay type: cell-based; settings: Staphylococcus aureus, Sensitivity Disk agar-N+5% Horse blood, inoculants 10^6 CFU/ml, read-out: minimum inhibiting concentrations (MIC)
Description: as §1

H. influenzae PRC44 = assay: Test 1: Anti-Microbial Activities (MIC); assay type: cell-based; settings: Haemophilus influenzae, Sensitivity Disk agar-N+5% Horse blood, inoculants 10^6 CFU/ml, read-out: minimum inhibiting concentrations (MIC)
Description: as §1

K. pneumoniae PCI602 = assay: Test 1: Anti-Microbial Activities (MIC); assay type: cell-based; settings: Klebsiella pneumoniae, Sensitivity Disk agar-N+5% Horse blood, inoculants 10^6 CFU/ml, read-out: minimum inhibiting concentrations (MIC)
Description: as §1

H. influenzae PRC2 = assay: Test 1: Anti-Microbial Activities (MIC); assay type: cell-based; settings: Haemophilus influenzae, Sensitivity Disk agar-N+5% Horse blood, inoculants 10^6 CFU/ml, read-out: minimum inhibiting concentrations (MIC)
Description: as §1

C. freundii GN346 = assay: Test 1: Anti-Microbial Activities (MIC); assay type: cell-based; settings: Citrobacter freundii, Sensitivity Disk agar-N+5% Horse blood, inoculants 10^6 CFU/ml, read-out: minimum inhibiting concentrations (MIC)
Description: as §1

S. aureus M126 = assay: Test 1: Anti-Microbial Activities (MIC); assay type: cell-based; settings: Staphylococcus aureus; S. aureus M126, methicillin-hyperresistant strain (MRSA); Sensitivity Disk agar-N+5% Horse blood; inoculants 10^6 CFU/ml; read-out: minimum inhibiting concentrations (MIC)
Description: as §1

P. vulgaris GN7919 = assay: Test 1: Anti-Microbial Activities (MIC); assay type: cell-based; settings: Proteus vulgaris, Sensitivity Disk agar-N+5% Horse blood, inoculants 10^6 CFU/ml, read-out: minimum inhibiting concentrations (MIC)
Description: as §1

E. faecalis W-73 = assay: Test 1: Anti-Microbial Activities (MIC); assay type: cell-based; settings: Enterococcus faecalis, W73, Sensitivity Disk agar-N+5% Horse blood, inoculants 10^6 CFU/ml, read-out: minimum inhibiting concentrations (MIC)
Description: as §1

E. coli NIHJ JC-2 = assay: Test 1: Anti-Microbial Activities (MIC); assay type: cell-based; settings: Escherichia coli, NIHJJC2, Sensitivity Disk agar-N+5% Horse blood, inoculants 10^6 CFU/ml, read-out: minimum inhibiting concentrations (MIC)
Description: as §1

M. catarrhalis W-0500 = assay: Test 1: Anti-Microbial Activities (MIC); assay type: cell-based; settings: Moraxella catarrhalis, W0500, Sensitivity Disk agar-N+5% Horse blood, inoculants 10^6 CFU/ml, read-out: minimum inhibiting concentrations (MIC)
Description: as §1

mouse DHP-I = biological target: T1, mouse DHP-I (Mus musculus, UniProt P31428); assay: Test 2: stability against DHP-I (mouse)
T1 sequence (P31428 17-384): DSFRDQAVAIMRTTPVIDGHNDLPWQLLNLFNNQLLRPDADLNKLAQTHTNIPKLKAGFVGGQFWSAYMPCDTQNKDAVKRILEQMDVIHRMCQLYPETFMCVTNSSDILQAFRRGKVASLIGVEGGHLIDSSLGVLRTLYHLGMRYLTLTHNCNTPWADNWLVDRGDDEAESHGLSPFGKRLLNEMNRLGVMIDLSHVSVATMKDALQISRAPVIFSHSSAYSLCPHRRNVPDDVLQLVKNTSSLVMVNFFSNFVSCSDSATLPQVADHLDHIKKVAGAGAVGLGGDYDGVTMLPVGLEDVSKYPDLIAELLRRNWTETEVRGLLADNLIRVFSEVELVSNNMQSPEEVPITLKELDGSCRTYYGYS

porcine renal DHP-I = biological target: T2, porcine renal DHP-I (Sus scrofa, UniProt P22412); assay: Test 2: stability against DHP-I (porcine); settings: partly purified Porcine DHP-I, 100 μg (titer)/ml, 37° C., HPLC
T2 sequence (P22412 17-384): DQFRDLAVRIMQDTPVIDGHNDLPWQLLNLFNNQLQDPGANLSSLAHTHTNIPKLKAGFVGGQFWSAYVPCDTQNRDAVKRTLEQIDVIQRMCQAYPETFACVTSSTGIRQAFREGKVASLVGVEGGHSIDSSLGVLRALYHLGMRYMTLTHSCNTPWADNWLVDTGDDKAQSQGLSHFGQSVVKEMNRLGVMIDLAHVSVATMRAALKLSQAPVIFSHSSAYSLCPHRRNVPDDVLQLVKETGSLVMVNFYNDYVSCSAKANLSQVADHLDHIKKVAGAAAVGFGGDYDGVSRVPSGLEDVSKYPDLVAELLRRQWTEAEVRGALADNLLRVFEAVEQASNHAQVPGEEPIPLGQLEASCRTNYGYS

Molecule	bio-availability (BA): mother compound excreted in urine by 24 hours ([1]; mouse, in vivo, po) [%]	MIC (E. hirae ATCC8043) [µg/mL]	MIC (S. pneumoniae PRC9) [µg/mL]	MIC (S. epidermidis ATCC14990) [µg/mL]	MIC (S. aureus 209P JC-1) [µg/mL]	MIC (H. influenzae PRC44) [µg/mL]	MIC (K. pneumoniae PCI602) [µg/mL]	MIC (H. influenzae PRC2) [µg/mL]	MIC (C. freundii GN346) [µg/mL]	MIC (S. aureus M126) [µg/mL]	MIC (P. vulgaris GN7919) [µg/mL]	MIC (E. faecalis W-73) [µg/mL]	MIC (E. coli NIHJ JC-2) [µg/mL]	MIC (M. catarrhalis W-0500) [µg/mL]	other results
1-Adamantylcarbonyloxymethyl (1S,5R,6S)-6-((1R)-1-hydroxyethyl)-methyl-2-(7-methylthio-imidazo[5,1-b]thiazol-2-yl)-1-carbapen-2-em-3-carboxylate [Example 250]	39	–	–	–	–	–	–	–	–	–	–	–	–	–	–
CSc1ncn2cc(C3=C(C(=O)[O-])N4C(=O)[C@H]([C@@H](C)O)[C@H]4[C@H]3C)sc12.[Na+] [Example 111, Sodium (1S,5R,6S)-6-((1R)-1-Hydroxyethyl)-1-methyl-2-(7-methylthioimidazo[5,1-b]thiazol-2-yl)-1-carbapen-2-em-3-carboxylate]	–	0.39	0.05	< 0.025	< 0.025	0.05	0.78	< 0.025	1.56	1.56	0.39	0.2	0.78	< 0.025	solubility [2]: limited solubility; survival (acute toxicity) ([3]; mice, 1,500 mg/kg i.v.): All of the animal survived; survival (acute toxicity) ([3]; mice, 1,500 mg/kg i.v., cilastatin sodium co-administered): All of the animal survived
CSc1ncn2cc(C3=C(C(=O)OC(C)OC(=O)OCCC(C)C)N4C(=O)[C@H]([C@@H](C)O)[C@H]4[C@H]3C)sc12 (stereo partly drawn) [Example 273, 1-(3-Methyl-1-butyloxycarbonylbxy)ethyl (1S,5R,6S)-6-((1R)-1-hydroxyethyl)-1-methyl-2-(7-methylthioimidazo[5,1-b]thiazol-2-yl1)-1-carbapen-2-em-3-carboxylate]	36	–	–	–	–	–	–	–	–	–	–	–	–	–	–
CSc1ncn2cc(C3=C(C(=O)OCOC(=O)c4ccccc4)N4C(=O)[C@H]([C@@H](C)O)[C@H]4[C@H]3C)sc12 [Example 253, Benzoylxymethyl (1S,5R,6S)-6-((1R)-1-hydroxyethyl)-1-methyl-2-(7-methylthioimidazo-[5,1-b]thiazol-2-yl)-1-carbapen-2-em-3-carboxylate]	37	–	–	–	–	–	–	–	–	–	–	–	–	–	–
CC(C)C1CC[C@H](C)CC1OC(=O)OCOC(=O)C1=C(c2cn3cnc(S(C)(=O)=O)c3s2)[C@H](C)[C@@H]2[C@@H]([C@@H](C)O)C(=O)N12 (stereo partly drawn) [Example 218, (1S,2R,5s)-(d)-Menthyloxycarbonyloxymethyl (1S,5R,6S)-6-((1R)-1-hydroxyethyl)-2-(7-methanesulfonylimidazo[5,1-b]thiazol2-yl)-1-methyl-1-carbapen-2-em-3-carboxylate]	–	–	–	–	–	–	–	–	–	–	–	–	–	–	bio-availability (BA): mother compound excreted in urine by 24 hours ([1]; mice, oral, same as Test 3 but 5%HCO60 instead of 0.5% methylcellulose suspension): 26%
C[C@@H](O)[C@H]1C(=O)N2C(C(=O)[O-])=C(c3cn4cnc(S(C)(=O)=O)c4s3)[C@H](C)[C@H]12.[Na+] [Example 62, Sodium (1S,5R,6S)-6-((1R)-1-Hydroxyethyl)-2-(7-methanesulfonylimidazo[5,1-b]thiazol-2-yl)-1-methyl-1-carbapen-2-em-3-carboxylate]	–	0.39	0.05	< 0.025	< 0.025	0.05	0.05	< 0.025	1.56	1.56	0.1	0.2	0.05	< 0.025	stability to mouse DHP-I (in words) (mouse DHP-I): instability; residual amounts (%) after 3 hours (mouse DHP-I; partly purified Mouse DHP-I, 100 μg (titer)/ml, 37° C., 3 hours, HPLC): 1.5%; survival (acute toxicity) ([3]; mice, 2,000 mg/kg i.v.): All of the animal survived; survival (acute toxicity) ([3]; mice, 2,000 mg/kg i.v., cilastatin sodium co-administered): All of the animal survived; residual amounts (%) after 3 hours (porcine renal DHP-I): 64%
